Reference: patent US20100003287A1, “Compositions and Methods Relating to Treatment of Cancer and Infectious Diseases” (THE PROVOST, FELLOWS AND SCHOLARS OF THE COLL. OF THE HOLY …, priority 2005, published 2010)

Experiments:
ERK = format: cell-based, mice
Protocol: In certain experiments, the ERK or p38 inhibitors were added 1 hr before the TLR ligands. Cell lysates were resolved by SDS-PAGE, transferred to nitrocellulose membranes and blotted with antibodies specific for phospho-p38 (pp38; Cell Signal Technology, Mass., USA), or phospho-ERK (pERK; Santa Cruz Biotechnologies, USA) and a horseradish peroxidase-linked secondary antibody. The nitrocellulose was stripped and probed with antibodies specific for total p38 or total ERK.

[1] = test system: draining lymph node cells; test: Immunisation with KLH and TLR ligands, antigen-specific cytokine production by lymph node cells (ELISA); format: in vivo, BALB/c mice; conditions: s.c. KLH 5 μg alone or with adjuvant; lymph node cells day 7, KLH 50 μg/ml, 3 days
[2] = test system: immature bone marrow-derived DC; test: DC activation by TLR ligands, cytokine ELISA; conditions: 1 ng/ml-10 μg/ml TLR ligand, 24 h
Protocol: After 24 h, supernatants were removed and IL-10, IL-12p40 and IL-12p70 concentrations determined by ELISA. NT, not tested (FIG. 9).

B16 tumour cells [3] = test: Direct tumour therapy with CpG and Celecoxib; format: in vivo, C57BL/6 mice; conditions: CpG 20 μg, Celecoxib 500 μg or both s.c. at tumour site, days 3, 5 and 7
Protocol: C57BL/6 mice were challenged with 2×10^5 tumour cells s.c. and injected s.c. on days 3, 5 and 7 with either CpG (10 or 20 μg), the Cox-2 inhibitor Celecoxib (100 or 500 μg) or a combination of both at the tumour site. Mice were routinely monitored for tumour growth and survival. Tumour size was measured in two dimensions by callipers and determined by the following formula: (width^2×length)×π/6 where width is the lesser value. Mice were killed when tumour a length measured greater than 15 mm.
Mice were routinely monitored for tumour growth (FIG. 19).
Tumour volumes were routinely monitored (FIG. 20).
C57BL/6 mice were challenged with 2×10^5 tumour cells s.c. and injected s.c. on days 3, 5 and 7 with either CpG (20 μg), the Cox-2 inhibitor Celecoxib (500 μg) or a combination of both at the tumour site. Mice were routinely monitored for tumours and survival (FIG. 21).

[4] = test system: IFN-gamma- and IL-10-secreting T cells; test: DC transfer experiment (KLH, CpG and inhibitors), T cell responses in vivo; parameters: species or system C57BL/6 mice; conditions: DC with KLH 5 μg, CpG 5 μg and inhibitors (NS-398 5 μM, SB203580 1 μM, U0126 5 μM) into footpad; day 5 cells restimulated with KLH
Protocol: 2.5×10^5 treated cells were injected into each footpad. Popliteal lymph nodes and spleens were removed after 5 days, and single cell suspensions were restimulated with KLH (2, 10, 50 μg/ml). S/N were removed after 3 days, and aliquots were measured for IFN-gamma and IL-10 by ELISA.
2.5×10^5 treated cells were injected into each footpad of 57BL-6 mice. Popliteal lymph nodes and spleens were removed after 5 days, and single cell suspensions were restimulated with KLH (2, 10, 50 μg/ml). Supernatants were removed after 3 days, and IFN-gamma and IL-10 concentrations quantified by ELISA (FIG. 13).

[5] = test system: PGE2 production by dendritic cells; test: TLR agonist induced PGE2 production by DC (ELISA); format: cell-based; conditions: 24 hours
Protocol: Bone marrow-derived dendritic cells (DC) were stimulated in vitro with CpG (5 μg) or the ERK inhibitor, U0126 (5 μM), or both for 24 hours. Supernatants were removed and PGE2 concentrations determined by ELISA. **p<0.01 CpG+p38 inhibitor versus CpG by ANOVA (FIG. 25).
Bone marrow-derived DC were stimulated with CpG (5 μg) alone or in the presence of the Cox-2 inhibitor, NS-398. After 24 hours, supernatants were removed and concentrations of PGE2 (FIG. 26(a)) were determined by ELISA. *p<0.05 CpG+p38 inhibitor versus CpG by ANOVA.
Supernatants were removed and PGE2 concentrations determined by ELISA. *p<0.05 CpG+p38 inhibitor versus CpG by ANOVA (FIG. 27).

bone marrow-derived DC [6] = conditions: for IL-10 production from CpG-ODN- or LPS-stimulated DC: inhibitor 1 h (U0126 1.25-5 μM, SB203580 0.1-10 μM) before CpG-ODN 5 μg/ml or LPS 100 ng/ml, 24 h; for IL-12p70 production from TLR ligand-stimulated DC: inhibitor pre-incubation, LPS or CpG-ODN
Protocol: (§1) Bone-marrow derived immature DC (BMDC) were generated by cultivation of extracted bone marrow cells with GM-CSF (40 ng/ml) for 10 days. BMDC from either BALB/c or C57BL/6 mice were incubated with 1 ng/ml-10 μg/ml of the TLR agonists, Pam3CSK4, Zymosan, LPS, Flagellin, PolylC, CpG-OCDN or medium only.
DC were pre-incubated for 1 h with the MEK 1/2 inhibitor (U0126) and then incubated for 15 min with medium only or with Pam3Cys, Zymosan, LPS, Flagellin, or CpG-ODN (1 or 5 μg/ml). […] DC were stimulated with medium only (0) or for 0.5, 1, 2, 4, 8 or 12 h with LPS (100 ng/ml). […] Cells treated with DMSO were used as negative controls.
Superntants were removed, and aliquots was measured for IL-10, IL-12p70 and IL-6 by ELISA (FIG. 11).

bone marrow-derived DC [7] = test: CpG-stimulated DC with Cox-2 inhibitor NS-398, cytokine ELISA; format: cell-based, C57BL/6 mice
Protocol: as §1

bone marrow-derived DC [8] = test: CpG-stimulated DC with Cox-2 inhibitor NS-398, cytokine mRNA RT-PCR; format: cell-based, C57BL/6 mice
CD80 on CD11c+ DC = test: CD80 expression on DC (cytofluorometric analysis); format: cell-based; conditions: HSP70 vaccine 5 mg/ml, NS398 5 mM, 24 hours, gated on CD11c+
Protocol: Bone marrow derived DC were incubated with medium only (Control), HSP70 vaccine (5 mg/ml), the Cox-2 inhibitor NS398 (5 mM), HSP70 and Cox-2 inhibitor or LPS (10 ng/ml). After 24 hours cells were labelled with anti-CD80 and CD11C antibodies and cytofluorometric analysis performed. Results represent mean fluorescence intensity (MFI) on cells that were gated on the CD11c+ DC population (FIG. 24).

bone marrow-derived DC [9] = test: Cytokines from DC treated with B16 tumour vaccine, CpG and p38 inhibitor (ELISA); format: cell-based; conditions: DC with heat shocked and irradiated B16 cells 4 hours, CpG 5 μg, SB 203580 5 μM, 24 hours
Protocol: Supernatants were removed after 24 hours and IL-10, IL-12p40, IL-12p70 and IL-23 concentrations were determined by ELISA. *p<0.05; ***p<0.0001, CpG+p38 inhibitor versus GpG by ANOVA.

IL-1 beta in lungs = test: Lung IL-1 beta after B. pertussis challenge of immunized mice; format: in vivo; conditions: added to acellular pertussis vaccine with CpG 5 μg; SB203580 50 μM; 4 hours after challenge
[10] = test system: CD4+ T cells from D011.10 OVA-TCR Tg mice; test: In vitro activation of OVA-TCR T cells with modulated DC; format: cell-based, BALB/c mice; conditions: DC pulsed with OVA peptide 5 μg, CpG 10 μg alone or with SB203580 1 or 5 μM, 24 h; T cells:DC 10:1
Protocol: DC from BALB/c were incubated with OVA Class II peptide (5 μg). […] D011.10 OVA-TCR T cells were then added to the BMDC (10:1). Supernatants were removed after 3 and 11 days, and aliquots were measured for IL-10-and IFN-gamma by ELISA.
Bone marrow-derived DC from BALB/c were incubated with OVA Class II peptide (5 μg). […] Purified CD4+ T cells from D011.10 OVA-TCR Tg mice were stimulated with the DC (10:1) and supernatants were removed 3 days after antigen stimulation and IL-10 and IFNgamma quantified by ELISA (FIG. 12).

Bordetella pertussis = test: Acellular pertussis vaccine, B. pertussis aerosol challenge, lung CFU counts; format: in vivo; conditions: mice, i.p. 0 and 4 weeks, 0.02 human dose vaccine, CpG 5 μg, SB203580 50 μM; aerosol challenge 2 weeks later
spleen mononuclear cells = test: Spleen cell IFN-gamma and IL-10 after acellular pertussis vaccination; format: in vivo, mice; conditions: added to acellular pertussis vaccine with CpG 5 μg, SB203580 50 μM
B16 tumour cells [11] = test: Therapeutic DC vaccine pulsed with B16 cells with or without CpG and p38 inhibitor; format: in vivo, C57BL/6 mice; conditions: for protective efficacy of tumour vaccine (tumour volumes): 5×10^5 DC days 3, 10 and 17
Description: Tumour growth was routinely monitored. Results represent tumour volumes for individual mice (FIG. 29).
Tumour growth was routinely monitored. Results represent tumour volumes for individual mice (FIG. 30).
Mice were routinely monitored for survival. Numbers in parentheses represent statistical difference versus control group (FIG. 31).

[12] = CpG 5 μg with inhibitor (U0126 5 μM or NS-398)
[13] = CpG 10 μg alone or with various concentrations of NS-398, 24 h
[14] = CpG 10 μg alone or with NS-398 1 or 10 μM, 24 h

Molecule: lipopolysaccharide [LPS]
- time for which LPS-induced ERK phosphorylation was still evident (ERK; LPS 100 ng/ml, 0.5-12 h): up to 8 hours
- time of maximal LPS-induced ERK phosphorylation (ERK; LPS 100 ng/ml, 0.5-12 h): 30 min
- KLH-specific IFN-gamma production [1]: high concentrations
- KLH-specific IL-4 production [1]: low or undetectable
- IL-10 production from DC [2]: induced production
- IL-12p40 production from DC [2]: induced production
- IL-12p70 production from DC [2]: induced production

Molecule: Cc1ccc(-c2cc(C(F)(F)F)nn2-c2ccc(S(N)(=O)=O)cc2)cc1 [Celecoxib]
- mice survived (B16 tumour cells [3]): 20%

Molecule: N#CC(=C(/N)Sc1ccccc1N)/C(C#N)=C(\N)Sc1ccccc1N [U0126]
- induction of IFN-gamma-secreting T cells (Th1) in vivo [4]: suppressed
- induction of IL-10 secreting T cells in vivo [4]: suppressed
- TLR-ligand induced ERK phosphorylation (ERK): inhibited
- CpG-induced PGE2 production by dendritic cells [5, 12]: reverses
- enhancement of IL-12p70 production in DC from IL-10−/− mice (bone marrow-derived DC [6]; data not shown): retained
- IL-10 production from CpG-ODN- or LPS-stimulated DC (bone marrow-derived DC [6]): suppressed
- IL-12p70 production from TLR ligand-stimulated DC (bone marrow-derived DC [6]): enhanced

Molecule: Pam3CSK4
- IL-10 production from DC [2]: induced production
- IL-12p40 production from DC [2]: induced production
- IL-12p70 production from DC [2]: induced production

Molecule: CS(=O)(=O)Nc1ccc([N+](=O)[O-])cc1OC1CCCCC1 [NS-398]
- CpG-induced IL-10 production by dendritic cells (bone marrow-derived DC [7]; CpG 5 μg with NS-398, 24 h): reverses
- IL-10 production by DC (bone marrow-derived DC [7]; [13]): suppressed
- IL-12p40 (IL-12) production by DC (bone marrow-derived DC [7]; [13]): enhanced
- induction of IFN-gamma-secreting T cells (Th1) in vivo [4]: enhanced
- induction of IL-10 secreting T cells in vivo [4]: suppressing
- IL-12p35 mRNA expression in DC (bone marrow-derived DC [8]; [14]): enhanced
- IL-12p40 mRNA expression in DC (bone marrow-derived DC [8]; [14]): enhanced
- IL-27p28 mRNA expression in DC (bone marrow-derived DC [8]; [13]): enhanced
- CpG-induced IL-10 mRNA expression in DC (bone marrow-derived DC [8]; CpG 10 μg with NS-398, 24 h): suppressed
- CpG-induced PGE2 production by dendritic cells [5, 12]: reverses
- CD80 expression (mean fluorescence intensity) (CD80 on CD11c+ DC): neither Cox-2 nor HSP70 alone enhanced

Molecule: C[S+]([O-])c1ccc(-c2nc(-c3ccncc3)c(-c3ccc(F)cc3)[nH]2)cc1 (stereo not shown) [SB203580]
- CpG-induced IL-10 production by dendritic cells (bone marrow-derived DC [9]): reverses
- IL-12 production by dendritic cells (bone marrow-derived DC [9]): enhancing
- IL-23 production (bone marrow-derived DC [9]): not affected
- induction of IFN-gamma-secreting T cells (Th1) in vivo [4]: enhanced
- induction of IL-10 secreting T cells in vivo [4]: suppressing
- local IL-1 beta in the lungs (IL-1 beta in lungs): enhanced
- induction of IFN-gamma-secreting T cells [10]: enhanced
- induction of IL-10 secreting T cells [10]: suppressed
- protective efficacy against B. pertussis challenge (Bordetella pertussis): significantly enhances
- IFN-gamma responses (spleen mononuclear cells): enhanced
- IL-10 responses (spleen mononuclear cells): reduced
- CpG-induced PGE2 production by dendritic cells ([5]; DC treated with heat shocked and irradiated B16 cells 4 hours, CpG 5 μg, SB 203580 5 μM): reverses
- survival of mice (B16 tumour cells [11]; DC activated with killed whole B16 cells alone or with CpG 5 μg, SB 203580 5 μM, days 3, 10 and 17): enhances survival
- protective efficacy of tumour vaccine (tumour volumes) (B16 tumour cells [11]; DC activated with killed whole B16 cells and CpG 5 μg, SB203580 5 μM): enhances
- protective efficacy of tumour vaccine (tumour volumes) (B16 tumour cells [11]; DC activated with killed whole B16 cells, SB 203580 5 μM): enhances
- IL-10 production from CpG-ODN- or LPS-stimulated DC (bone marrow-derived DC [6]): inhibited
- IL-12p70 production from TLR ligand-stimulated DC (bone marrow-derived DC [6]): enhanced

Molecule: Flagellin
- IL-10 production from DC [2]: induced production
- IL-12p40 production from DC [2]: induced production
- IL-12p70 production from DC [2]: induced production
